{"source": "ChEMBL document CHEMBL4190267", "about": "“Discovery of potent molecular chimera (CM358) to treat human metastatic melanoma” (Eur J Med Chem, 2017)", "key": {"WM 266-4 [1]": {"tested_on": "WM 266-4", "test": "Induction of apoptosis in human WM266.4 cells assessed as late apoptotic cells at 25 uM after 24 hrs by Annexin V-FITC/propidium iodide staining based flow cytometry (reference value: 1.41%)", "format": "functional"}, "WM 266-4 [2]": {"tested_on": "WM 266-4", "test": "Induction of apoptosis in human WM266.4 cells assessed as late apoptotic cells at 25 uM after 2 hrs by Annexin V-FITC/propidium iodide staining based flow cytometry (reference value: 1.41%)", "format": "functional"}, "WM 266-4 [3]": {"tested_on": "WM 266-4", "test": "Induction of apoptosis in human WM266.4 cells assessed as necrotic cells at 10 uM after 8 hrs by Annexin V-FITC/propidium iodide staining based flow cytometry (reference value: 1.22%)", "format": "functional"}, "WM 266-4 [4]": {"tested_on": "WM 266-4", "test": "Cell cycle arrest in human WM266.4 cells assessed as accumulation at G2 phase at 10 uM after 8 hrs by propidium iodide staining based flow cytometry (reference value: 11%)", "format": "functional"}, "WM 266-4 [5]": {"tested_on": "WM 266-4", "test": "(§1) Antitumor activity against human WM266.4 cells xenografted in athymic Foxn1 nu mouse assessed as tumor growth inhibition at 10 mg/kg, ip administered once daily for 3 days followed by resting period of 4 days repeated for 4 weeks starting from 5 days post tumor inoculation measured on day 21 relative to control", "format": "functional", "conditions": "WM 266-4, ip, read-out: TGI"}, "WM 266-4 [6]": {"tested_on": "WM 266-4", "test": "Induction of apoptosis in human WM266.4 cells assessed as live cells at 25 uM after 8 hrs by Annexin V-FITC/propidium iodide staining based flow cytometry (reference value: 94.7%)", "format": "functional"}, "WM 266-4 [7]": {"tested_on": "WM 266-4", "test": "Induction of apoptosis in human WM266.4 cells assessed as early apoptotic cells at 25 uM after 24 hrs by Annexin V-FITC/propidium iodide staining based flow cytometry (reference value: 2.64%)", "format": "functional"}, "[8]": {"test": "Half life in human WM266.4 cells by LC-MS analysis", "format": "ADME, cell-based, WM 266-4"}, "WM 266-4 [9]": {"tested_on": "WM 266-4", "test": "Induction of apoptosis in human WM266.4 cells assessed as early apoptotic cells at 10 uM after 2 hrs by Annexin V-FITC/propidium iodide staining based flow cytometry (reference value: 2.64%)", "format": "functional"}, "WM 266-4 [10]": {"tested_on": "WM 266-4", "test": "Induction of apoptosis in human WM266.4 cells assessed as live cells at 10 uM after 24 hrs by Annexin V-FITC/propidium iodide staining based flow cytometry (reference value: 94.7%)", "format": "functional"}, "[11]": {"test": "Half life in pH 7.4 PBS buffer by LC-MS analysis", "format": "physicochemical"}, "MDA-MB-231": {"tested_on": "MDA-MB-231", "test": "Growth inhibition of human MDA-MB-231 cells preincubated for 6 hrs followed compound washout measured after 24 hrs by XTT assay", "format": "functional"}, "WM 266-4 [12]": {"tested_on": "WM 266-4", "test": "Antitumor activity against human WM266.4 cells xenografted in athymic Foxn1 nu mouse assessed as tumor growth inhibition at 10 mg/kg, ip administered once daily for 3 days followed by resting period of 4 days repeated for 4 weeks starting from 5 days post tumor inoculation measured on day 19", "format": "functional, organism-based"}, "WM 266-4 [13]": {"tested_on": "WM 266-4", "test": "Induction of apoptosis in human WM266.4 cells assessed as early apoptotic cells at 10 uM after 8 hrs by Annexin V-FITC/propidium iodide staining based flow cytometry (reference value: 2.64%)", "format": "functional"}, "WM 266-4 [14]": {"tested_on": "WM 266-4", "test": "Growth inhibition of human WM266.4 cells at 1 uM incubated up to 96 hrs by XTT assay", "format": "functional, cell-based"}, "WM 266-4 [15]": {"tested_on": "WM 266-4", "test": "as §1, with “25” for “10”", "format": "functional", "conditions": "WM 266-4, ip, read-out: TGI"}, "PC-3": {"tested_on": "PC-3", "test": "Growth inhibition of human PC3 cells preincubated for 6 hrs followed compound washout measured after 24 hrs by XTT assay", "format": "functional"}, "WM 266-4 [16]": {"tested_on": "WM 266-4", "test": "Induction of apoptosis in human WM266.4 cells assessed as live cells at 10 uM after 2 hrs by Annexin V-FITC/propidium iodide staining based flow cytometry (reference value: 94.7%)", "format": "functional"}, "WM 266-4 [17]": {"tested_on": "WM 266-4", "test": "as §1, with “for 7” for “for 3”, “of 2” for “of 4”", "format": "functional", "conditions": "WM 266-4, ip, read-out: TGI"}, "WM 266-4 [18]": {"tested_on": "WM 266-4", "test": "Antitumor activity against human WM266.4 cells xenografted in athymic Foxn1 nu mouse assessed as mouse survival at 10 mg/kg, ip administered once daily for 3 days followed by resting period of 4 days repeated for 4 weeks starting from 5 days post tumor inoculation relative to control", "format": "functional", "conditions": "WM 266-4, ip"}, "WM 266-4 [19]": {"tested_on": "WM 266-4", "test": "Induction of apoptosis in human WM266.4 cells assessed as necrotic cells at 25 uM after 24 hrs by Annexin V-FITC/propidium iodide staining based flow cytometry (reference value: 1.22%)", "format": "functional"}, "WM 266-4 [20]": {"tested_on": "WM 266-4", "test": "Cell cycle arrest in human WM266.4 cells assessed as accumulation at G1 phase at 10 uM after 2 hrs by propidium iodide staining based flow cytometry (reference value: 59%)", "format": "functional"}, "WM 266-4 [21]": {"tested_on": "WM 266-4", "test": "Induction of apoptosis in human WM266.4 cells assessed as early apoptotic cells at 25 uM after 2 hrs by Annexin V-FITC/propidium iodide staining based flow cytometry (reference value: 2.64%)", "format": "functional"}, "[22]": {"molecular_target": "DNA topoisomerase 2-alpha (Homo sapiens) (UniProt P11388)", "sequence (P11388 whole entry)": "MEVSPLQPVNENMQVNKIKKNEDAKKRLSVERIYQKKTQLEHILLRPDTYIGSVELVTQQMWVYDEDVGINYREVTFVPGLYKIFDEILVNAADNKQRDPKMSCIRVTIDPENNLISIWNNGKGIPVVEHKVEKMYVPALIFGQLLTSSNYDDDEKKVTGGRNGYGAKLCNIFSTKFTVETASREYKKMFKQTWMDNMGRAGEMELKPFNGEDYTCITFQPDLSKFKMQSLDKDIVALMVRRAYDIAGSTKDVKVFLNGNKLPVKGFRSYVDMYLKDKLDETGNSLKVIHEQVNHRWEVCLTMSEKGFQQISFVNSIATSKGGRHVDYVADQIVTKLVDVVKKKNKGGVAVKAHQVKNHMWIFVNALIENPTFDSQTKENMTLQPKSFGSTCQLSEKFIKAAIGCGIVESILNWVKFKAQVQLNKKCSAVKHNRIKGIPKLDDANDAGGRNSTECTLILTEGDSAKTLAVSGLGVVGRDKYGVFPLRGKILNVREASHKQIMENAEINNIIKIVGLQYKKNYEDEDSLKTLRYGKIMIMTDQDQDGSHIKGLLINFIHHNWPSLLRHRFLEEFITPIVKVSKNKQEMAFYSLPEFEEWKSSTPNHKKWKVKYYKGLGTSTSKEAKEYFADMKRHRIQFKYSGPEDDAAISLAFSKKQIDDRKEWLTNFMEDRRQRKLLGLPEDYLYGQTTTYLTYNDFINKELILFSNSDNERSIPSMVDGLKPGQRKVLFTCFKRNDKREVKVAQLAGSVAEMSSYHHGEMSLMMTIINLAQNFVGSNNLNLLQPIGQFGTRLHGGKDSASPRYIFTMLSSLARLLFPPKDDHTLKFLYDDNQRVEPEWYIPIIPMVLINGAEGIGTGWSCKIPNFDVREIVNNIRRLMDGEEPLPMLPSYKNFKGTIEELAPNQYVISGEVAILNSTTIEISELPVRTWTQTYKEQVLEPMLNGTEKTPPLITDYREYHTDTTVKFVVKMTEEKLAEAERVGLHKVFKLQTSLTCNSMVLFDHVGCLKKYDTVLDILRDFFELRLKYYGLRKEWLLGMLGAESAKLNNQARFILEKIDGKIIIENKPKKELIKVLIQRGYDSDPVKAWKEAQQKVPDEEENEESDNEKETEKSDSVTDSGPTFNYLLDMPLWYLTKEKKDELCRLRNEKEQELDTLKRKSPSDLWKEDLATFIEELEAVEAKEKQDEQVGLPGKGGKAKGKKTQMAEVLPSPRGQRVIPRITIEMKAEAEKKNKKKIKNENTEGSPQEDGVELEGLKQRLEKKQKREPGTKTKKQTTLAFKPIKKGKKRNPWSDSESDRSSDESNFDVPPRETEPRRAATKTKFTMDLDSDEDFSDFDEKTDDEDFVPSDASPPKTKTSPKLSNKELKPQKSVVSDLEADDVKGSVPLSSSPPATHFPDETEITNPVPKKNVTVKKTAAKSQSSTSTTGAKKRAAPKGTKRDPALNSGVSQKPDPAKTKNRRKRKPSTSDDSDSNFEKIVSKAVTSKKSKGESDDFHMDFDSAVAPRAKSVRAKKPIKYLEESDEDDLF", "test": "Inhibition of human topoisomerase-2alpha assessed as reduction in enzyme-mediated decatenation at 100 uM using kinetoplast DNA as substrate after 25 mins by ethidium bromide staining based agarose gel electrophoresis method"}}, "note": "Activity calls are given as the source filed them. No cut-off for these calls is given here."}
{"smiles": "CN(C)CCN1C(=O)c2cccc3cc(NC(=O)CCCc4ccc(N(CCCl)CCCl)cc4)cc(c23)C1=O.O=C(O)C(F)(F)F", "values": [{"measurement": "Activity", "setting": "WM 266-4 [1]", "result": 19.8, "unit": "%"}, {"measurement": "Activity", "setting": "WM 266-4 [2]", "result": 3.94, "unit": "%"}, {"measurement": "Activity", "setting": "WM 266-4 [3]", "result": 9.33, "unit": "%"}, {"measurement": "Activity", "setting": "WM 266-4 [4]", "result": 17, "unit": "%"}, {"measurement": "inhibition in vivo at 10 mg/kg", "setting": "WM 266-4 [5]", "result": 40, "unit": "%"}, {"measurement": "Activity", "setting": "WM 266-4 [6]", "result": 61.1, "unit": "%"}, {"measurement": "Activity", "setting": "WM 266-4 [7]", "result": 18.8, "unit": "%"}, {"measurement": "half-life", "setting": "[8]", "result": 25, "unit": "h"}, {"measurement": "Activity", "setting": "WM 266-4 [9]", "result": 5.05, "unit": "%"}, {"measurement": "Activity", "setting": "WM 266-4 [10]", "result": 84.5, "unit": "%"}, {"measurement": "half-life", "setting": "[11]", "result": 25, "unit": "h"}, {"measurement": "GI50", "setting": "MDA-MB-231", "result": 3.1, "unit": "µM"}, {"measurement": "TGI", "setting": "WM 266-4 [12]", "result": "Active"}, {"measurement": "Activity", "setting": "WM 266-4 [13]", "result": 6.66, "unit": "%"}, {"measurement": "growth inhibition (GI)", "setting": "WM 266-4 [14]", "result": "inactive"}, {"measurement": "inhibition in vivo at 25 mg/kg", "setting": "WM 266-4 [15]", "result": 46, "unit": "%"}, {"measurement": "GI50", "setting": "PC-3", "result": 7.1, "unit": "µM"}, {"measurement": "Activity", "setting": "WM 266-4 [16]", "result": 86.9, "unit": "%"}, {"measurement": "inhibition in vivo at 10 mg/kg", "setting": "WM 266-4 [17]", "result": 40, "unit": "%"}, {"measurement": "survival at 10 mg/kg", "setting": "WM 266-4 [18]", "result": 60, "unit": "%"}, {"measurement": "Activity", "setting": "WM 266-4 [19]", "result": 21.4, "unit": "%"}, {"measurement": "Activity", "setting": "WM 266-4 [20]", "result": 39, "unit": "%"}, {"measurement": "Activity", "setting": "WM 266-4 [21]", "result": 6.79, "unit": "%"}, {"measurement": "inhibition", "setting": "[22]", "result": "Active"}]}
